Test results taken from ChEMBL document CHEMBL3596122, “Isoform-Selective and Stereoselective Inhibition of Hypoxia Inducible Factor-2” (J Med Chem, 2015).
pIC50, pKd: −log10 of the molar value. Calls of active or inactive are those of the source. The calls are words filed in the database; no cut-off is given here.

What was measured:
[1] = molecular target: T1, Endothelial PAS domain-containing protein 1 (Homo sapiens, UniProt Q99814)
Description: Binding affinity to wild type His6-Gbeta1-fused HIF-2alpha PAS-B domain (240 to 350) (unknown origin) expressed in Escherichia coli by ITC analysis

[2] = molecular target: T2, Endothelial PAS domain-containing protein 1 (Homo sapiens, UniProt Q99814, S304M)
T2 sequence (Q99814 whole entry S304M, the tested form may be a part): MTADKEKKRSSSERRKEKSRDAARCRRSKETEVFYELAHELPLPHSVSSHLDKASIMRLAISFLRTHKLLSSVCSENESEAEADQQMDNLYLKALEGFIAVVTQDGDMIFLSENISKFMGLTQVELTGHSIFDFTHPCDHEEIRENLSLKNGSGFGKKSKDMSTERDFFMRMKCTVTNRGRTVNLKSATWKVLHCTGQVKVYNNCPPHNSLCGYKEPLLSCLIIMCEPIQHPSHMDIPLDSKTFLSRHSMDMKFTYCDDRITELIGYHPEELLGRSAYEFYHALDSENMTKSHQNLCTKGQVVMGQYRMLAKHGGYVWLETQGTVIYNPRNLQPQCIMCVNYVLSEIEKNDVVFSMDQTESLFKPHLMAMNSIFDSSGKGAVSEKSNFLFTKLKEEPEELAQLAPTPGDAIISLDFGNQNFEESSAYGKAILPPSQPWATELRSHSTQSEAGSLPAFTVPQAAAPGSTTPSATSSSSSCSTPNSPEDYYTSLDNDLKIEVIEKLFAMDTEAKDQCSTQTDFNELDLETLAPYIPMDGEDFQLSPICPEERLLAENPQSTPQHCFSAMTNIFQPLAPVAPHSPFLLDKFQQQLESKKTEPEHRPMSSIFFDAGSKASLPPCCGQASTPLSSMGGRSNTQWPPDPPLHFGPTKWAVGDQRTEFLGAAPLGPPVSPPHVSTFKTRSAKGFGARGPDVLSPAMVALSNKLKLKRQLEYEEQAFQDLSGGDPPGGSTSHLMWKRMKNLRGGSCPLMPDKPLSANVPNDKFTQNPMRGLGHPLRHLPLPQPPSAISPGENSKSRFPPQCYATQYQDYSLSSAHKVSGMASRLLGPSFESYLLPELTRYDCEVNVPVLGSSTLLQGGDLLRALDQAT

[3] = molecular target: T1, Endothelial PAS domain-containing protein 1; remark: listed apart in the source
Description: Binding affinity to wild type GST-tagged HIF-2alpha PAS-B (240 to 350) (unknown origin) expressed in Escherichia coli assessed as inhibition of interaction with His6-Gbeta1/FLAG fused ARNT PAS-B after 4 hrs by AlphaScreen assay

[4] = molecular target: T1, Endothelial PAS domain-containing protein 1; conditions: Hep 3B2, 0.01 to 10 uM
Description: Inhibition of HIF-2alpha in human Hep3B cells assessed as downregulation of EPO mRNA expression at 0.01 to 10 uM by RT-PCR analysis

[5] = molecular target: Hypoxia-inducible factor 1-alpha (Homo sapiens, UniProt Q16665); assay: Binding affinity to wild type GST-fused HIF-1alpha PAS-B domain (238 to 349) (unknown origin) expressed in Escherichia coli assessed as compound-protein complex formation by ITC analysis
Chain of Hypoxia-inducible factor 1-alpha (Q16665 whole entry, the tested form may be a part): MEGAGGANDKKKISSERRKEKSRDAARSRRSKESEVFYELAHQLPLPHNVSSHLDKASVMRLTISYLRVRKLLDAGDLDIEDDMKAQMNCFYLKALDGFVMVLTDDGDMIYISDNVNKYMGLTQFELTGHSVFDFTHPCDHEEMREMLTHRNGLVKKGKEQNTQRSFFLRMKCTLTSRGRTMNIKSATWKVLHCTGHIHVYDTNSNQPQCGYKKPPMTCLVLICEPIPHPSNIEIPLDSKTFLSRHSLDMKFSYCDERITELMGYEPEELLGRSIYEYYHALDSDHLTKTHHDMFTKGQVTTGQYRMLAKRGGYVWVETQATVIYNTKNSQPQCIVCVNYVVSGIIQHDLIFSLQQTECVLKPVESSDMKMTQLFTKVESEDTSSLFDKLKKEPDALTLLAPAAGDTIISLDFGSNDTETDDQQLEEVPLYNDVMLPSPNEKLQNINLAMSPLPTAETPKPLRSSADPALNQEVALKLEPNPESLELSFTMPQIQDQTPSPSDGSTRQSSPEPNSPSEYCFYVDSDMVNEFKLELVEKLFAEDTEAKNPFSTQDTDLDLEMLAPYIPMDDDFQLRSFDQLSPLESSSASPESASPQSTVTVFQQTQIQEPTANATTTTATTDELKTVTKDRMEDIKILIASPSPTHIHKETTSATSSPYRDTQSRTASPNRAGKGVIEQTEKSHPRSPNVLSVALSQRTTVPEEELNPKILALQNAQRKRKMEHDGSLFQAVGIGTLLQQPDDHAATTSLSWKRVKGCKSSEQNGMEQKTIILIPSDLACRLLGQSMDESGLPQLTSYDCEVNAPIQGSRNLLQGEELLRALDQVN

[6] = molecular target: T1, Endothelial PAS domain-containing protein 1; assay: Inhibition of HIF-2alpha in human Hep3B cells assessed as downregulation of EPO mRNA expression by RT-PCR analysis
[7] = test system: Hep 3B2; assay: Effect on HIF-1-mediated PGK1 mRNA expression in human Hep3B cells at 0.01 to 10 uM by RT-PCR analysis; type: cell-based
[8] = molecular target: T2, Endothelial PAS domain-containing protein 1; assay: Binding affinity to His6-Gbeta1-fused HIF-2alpha PAS-B domain S304M mutant (240 to 350) (unknown origin) expressed in Escherichia coli by ITC analysis

T1 sequence (Q99814 whole entry, the tested form may be a part): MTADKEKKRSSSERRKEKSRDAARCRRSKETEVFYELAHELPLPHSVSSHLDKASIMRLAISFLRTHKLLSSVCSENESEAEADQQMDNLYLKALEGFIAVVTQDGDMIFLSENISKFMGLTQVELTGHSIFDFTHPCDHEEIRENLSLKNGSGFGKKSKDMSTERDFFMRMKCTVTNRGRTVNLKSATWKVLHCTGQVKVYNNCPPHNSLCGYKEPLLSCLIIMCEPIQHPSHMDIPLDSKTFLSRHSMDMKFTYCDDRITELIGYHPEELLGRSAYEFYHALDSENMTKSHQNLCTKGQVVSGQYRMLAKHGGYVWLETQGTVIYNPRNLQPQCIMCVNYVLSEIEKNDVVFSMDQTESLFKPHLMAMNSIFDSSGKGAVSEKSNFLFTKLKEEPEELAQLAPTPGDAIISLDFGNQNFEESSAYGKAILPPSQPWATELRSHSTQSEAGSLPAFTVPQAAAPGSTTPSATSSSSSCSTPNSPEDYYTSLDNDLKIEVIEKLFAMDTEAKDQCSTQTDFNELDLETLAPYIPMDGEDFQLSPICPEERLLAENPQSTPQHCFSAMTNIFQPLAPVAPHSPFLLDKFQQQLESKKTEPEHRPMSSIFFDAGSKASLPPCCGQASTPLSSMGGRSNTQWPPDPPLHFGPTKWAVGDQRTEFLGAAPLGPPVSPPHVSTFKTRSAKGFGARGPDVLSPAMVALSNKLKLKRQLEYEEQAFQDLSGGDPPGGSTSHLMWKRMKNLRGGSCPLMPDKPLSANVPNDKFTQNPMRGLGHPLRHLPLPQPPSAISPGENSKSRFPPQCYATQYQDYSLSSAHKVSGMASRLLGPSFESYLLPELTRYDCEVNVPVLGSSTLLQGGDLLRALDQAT

Fc1cc(Br)cc(C2CC(c3cccc(Br)c3)n3nnnc3N2)c1 (racemic)
pKd [1]: 7.55

Clc1ccccc1[C@H]1C[C@@H](c2cccc(Br)c2)Nc2nnnn21
pKd [1]: 6.53
pIC50 [2]: 4.80
pIC50 [3]: 6.71

Fc1ccc(Br)c(F)c1C1CC(c2cccc(Br)c2)Nc2nnnn21 (racemic)
pKd [1]: 7.31

Fc1cc(Br)cc([C@H]2C[C@@H](c3ccccc3)n3nnnc3N2)c1
pKd [1]: < 5.70
pIC50 [2]: < 4.52
pIC50 [3]: < 4.52

CC(C)CC1CC(c2cccc(Br)c2)Nc2nnnn21 (racemic)
pKd [1]: 5.93

Clc1ccc(Br)cc1C1CC(c2cccc(Br)c2)Nc2nnnn21 (racemic)
pKd [1]: 6.90

Brc1cccc([C@@H]2C[C@H](c3ccccc3Br)n3nnnc3N2)c1
pKd [1]: 6.44
pIC50 [2]: 4.72
pIC50 [3]: 6.50

Fc1c(Br)ccc(Br)c1C1CC(c2cccc(Br)c2)Nc2nnnn21 (racemic)
pKd [1]: 6.62

Brc1cccc(C2CC(c3ccccc3Br)n3nnnc3N2)c1 (racemic)
pKd [1]: 6.40

Fc1ccc(F)c(C2CC(c3cccc(Br)c3)Nc3nnnn32)c1F (racemic)
pKd [1]: 6.41

Fc1cc(Br)cc([C@H]2C[C@@H](c3cccc(Br)c3)n3nnnc3N2)c1
pKd [1]: < 5.70
pIC50 [2]: < 4.52
inhibition [4]: inactive
pIC50 [3]: < 4.52

Fc1ccc(Br)c(Cl)c1C1CC(c2cccc(Br)c2)Nc2nnnn21 (racemic)
pKd [1]: 6.39

Fc1cc(Br)cc(C2CC(c3ccccc3)n3nnnc3N2)c1 (racemic)
pKd [1]: 6.67

Fc1c(Br)ccc(Cl)c1C1CC(c2cccc(Br)c2)Nc2nnnn21 (racemic)
pKd [1]: 7.07

Fc1cc(Br)cc([C@@H]2C[C@H](c3ccccc3)n3nnnc3N2)c1
pKd [1]: 6.78
pIC50 [2]: 5.00
pIC50 [3]: 7.01

Fc1ccc(Cl)c(F)c1C1CC(c2cccc(Br)c2)Nc2nnnn21 (racemic)
pKd [1]: 7.07

Brc1cccc([C@@H]2C[C@H](c3cccc(Br)c3)n3nnnc3N2)c1
pKd [1]: 7.20
pIC50 [2]: < 4.52
pIC50 [3]: 6.95

Brc1cccc(C2CC(c3ccccc3I)n3nnnc3N2)c1 (racemic)
pKd [1]: 6.12

Brc1cccc([C@H]2C[C@@H](c3cccc(Br)c3)n3nnnc3N2)c1
pKd [1]: < 5.70
pIC50 [2]: < 4.52
pIC50 [3]: < 4.52

Fc1ccc(I)cc1C1CC(c2cccc(Br)c2)Nc2nnnn21 (racemic)
pKd [1]: 6.80

Clc1ccccc1[C@@H]1C[C@H](c2cccc(Br)c2)Nc2nnnn21
pKd [1]: < 5.70
pIC50 [2]: < 4.52
pIC50 [3]: < 4.52

Brc1cccc(C2CC(c3cccc(Br)c3)n3nnnc3N2)c1 (racemic)
pKd [1]: 7.15

Clc1ccccc1C1CC(c2cccc(Br)c2)Nc2nnnn21 (racemic)
pKd [1]: 6.44

Fc1ccc(Br)c(F)c1[C@H]1C[C@@H](c2cccc(Br)c2)Nc2nnnn21
pKd [1]: 7.47
pIC50 [2]: 5.42
pIC50 [3]: 7.49

Fc1c(Cl)cccc1C1CC(c2cccc(Br)c2)Nc2nnnn21 (racemic)
pKd [1]: 7.42

Fc1ccc(Br)c(F)c1[C@@H]1C[C@H](c2cccc(Br)c2)Nc2nnnn21
pKd [1]: < 5.70
pIC50 [2]: < 4.52
pIC50 [3]: 4.65

Brc1cccc([C@H]2C[C@@H](c3ccccc3Br)n3nnnc3N2)c1
pKd [1]: < 5.70
pIC50 [2]: < 4.52
pIC50 [3]: 4.55

Clc1cccc(C2CC(c3cccc(Br)c3)Nc3nnnn32)c1 (racemic)
pKd [1]: 6.94

Clc1ccc(Br)cc1[C@@H]1C[C@H](c2cccc(Br)c2)Nc2nnnn21
pKd [1]: < 5.70
pIC50 [2]: < 4.52
pIC50 [3]: < 4.52

Fc1cc(Br)cc([C@@H]2C[C@H](c3cccc(Br)c3)n3nnnc3N2)c1
pKd [5]: < 5.30
pIC50 [6]: > 6.00
Activity [7]: inactive
pKd [1]: 7.64
pIC50 [2]: 4.84
pKd [8]: 5.70
pIC50 [3]: 7.37

Fc1c(Cl)ccc(Cl)c1C1CC(c2cccc(Br)c2)Nc2nnnn21 (racemic)
pKd [1]: 6.71

Clc1ccc(Br)cc1[C@H]1C[C@@H](c2cccc(Br)c2)Nc2nnnn21
pKd [1]: 6.90
pIC50 [2]: 4.62
pIC50 [3]: 7.06

Fc1ccccc1C1CC(c2cccc(Br)c2)Nc2nnnn21 (racemic)
pKd [1]: 6.49
